Earlier results on two molecules are cited in patent US20070149578A1, “Combination Therapy” (Pfizer, Inc., priority 2000, published 2007).

The test system of one data set is calcium channel. The following applies: see International Patent Application Number PCT/EP94/02697.
The subject of data set [1] is smooth muscle cell migration. The following applies: see International Patent Application Number PCT/EP95/00847.

For the molecule `CCOC(=O)C1=C(COCCN)NC(C)=C(C(=O)OC)[C@H]1c1ccccc1Cl` (single isomer, unassigned) [R(+) isomer], the “calcium channel blocking activity” value in the data set with calcium channel is reported as “little or no calcium channel blocking activity”. In addition, the “inhibitor of smooth muscle cell migration” value in data set [1] is reported as “potent inhibitor”. For `CCOC(=O)C1=C(COCCN)NC(C)=C(C(=O)OC)[C@@H]1c1ccccc1Cl` (single isomer, unassigned) [S(−) isomer], the “calcium channel blocking activity” value in the data set on calcium channel was “substantially confined to the S(−) isomer”.
